Experimental data taken from ChEMBL document CHEMBL1201862, “PubChem BioAssay data set” (2004).
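A five-concentration, 48-hour dose response in 96-well plates underlies each endpoint, interpolated linearly between surrounding concentrations. GI50: concentration for 50% inhibition of growth.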 Active and inactive are the calls of the source. Cut-off read from the data, not from the text of the source: active = GI50 up to about 1.1 µM and inactive = higher.

Columns and labels:
Test in all cases: inhibition of tumour cell growth, NCI panel, 48 h
[1] = test system: KM-20L2
[2] = test system: DMS-273
[3] = test system: M19-MEL
[4] = test system: DLD-1
[5] = test system: RXF 631
[6] = test system: XF498
[7] = test system: LXFL 529
[8] = test system: HOP-18
[9] = test system: SNB-78

Measured: GI50

Cc1ccccc1/N=N/C(C(=O)c1ccccc1)C(=O)c1ccccc1
inactive: [1] 27.7 µM | [2] 18.3 µM | [3] 17.5 µM | [4] 30.8 µM | [5] 34.9 µM | [6] 19.5 µM | [7] 13.1 µM

COc1c(O)c(O)cc2c1-c1ccc(OC)c(=O)cc1C(NC(C)=O)CC2 (configuration not stated)
inactive: [1] 2.7 µM | [2] 3.27 µM | [3] 6.12 µM | [8] > 100 µM | [4] 4.71 µM | [5] 14.9 µM | [9] 3.12 µM | [6] 5.38 µM | [7] 3.86 µM

CCCN(CCCC(NC(C)=O)C(=O)NCc1ccccc1)C(=O)NCCCl (configuration not stated)
inactive: [1] > 100 µM | [2] > 100 µM | [3] > 100 µM | [8] > 100 µM | [4] > 100 µM | [5] > 100 µM | [6] > 100 µM | [7] > 100 µM

CCOc1ccc(/N=N/c2ccc3oc(=O)c(/C(C)=N\NC(=O)CC(=O)Nc4ccc(Cl)cc4)cc3c2)cc1
inactive: [1] > 100 µM | [2] 16.3 µM | [3] 27.9 µM | [4] 12.6 µM | [5] 20 µM | [9] 27.9 µM | [6] 2.07 µM | [7] 10.8 µM

COCC1N=C(c2cc(OC)c(OC)c(OC)c2-c2cc3c(cc2[C@H](C)O)OCO3)O[C@H]1c1ccccc1 (some centres not stated)
inactive: [1] > 100 µM | [2] 37.2 µM | [3] 37.1 µM | [8] 88.9 µM | [4] 83.6 µM | [5] > 100 µM | [9] 61 µM | [7] 37.7 µM

NC(=O)N/N=C/C(/C=N/NC(N)=O)[N+](=O)[O-]
inactive: [1] > 100 µM | [3] > 100 µM | [4] > 100 µM | [5] > 100 µM | [6] > 100 µM | [7] > 100 µM

Cc1ccc(C(=O)C(C)N)cc1C (configuration not stated)
inactive: [1] > 100 µM | [3] > 100 µM | [4] > 100 µM | [5] > 100 µM | [6] 41.5 µM | [7] > 100 µM
